Assay results as given in the supplement of paper PMC13380429.

Legend:
Conditions in all cases: 72 h
Caco-2 [1] = assay: cell viability relative to DMSO; higher = less toxic
Calu-3 [2] = assay: as above
U2OS [3] = assay: as above
Vero E6 [4] = assay: as above
Caco-2 [5] = assay: relative viability EC50 (midpoint between 100% and the lowest measured viability); higher = less toxic
Calu-3 [6] = assay: as above
U2OS [7] = assay: as above
Vero E6 [8] = assay: as above
Caco-2 [9] = assay: drug sensitivity score (DSS) for viability; higher = more toxic; extreme values may be limits of the assay
Calu-3 [10] = assay: as above
U2OS [11] = assay: as above
Vero E6 [12] = assay: as above
HepG2 = assay: as above

SMILES	cell viability (Caco-2 [1]; 1 nM) [%]	cell viability (Caco-2 [1]; 10 nM) [%]	cell viability (Caco-2 [1]; 100 nM) [%]	cell viability (Caco-2 [1]; 1000 nM) [%]	cell viability (Caco-2 [1]; 10000 nM) [%]	cell viability (Calu-3 [2]; 1 nM) [%]	cell viability (Calu-3 [2]; 10 nM) [%]	cell viability (Calu-3 [2]; 100 nM) [%]	cell viability (Calu-3 [2]; 1000 nM) [%]	cell viability (Calu-3 [2]; 10000 nM) [%]	cell viability (U2OS [3]; 1 nM) [%]	cell viability (U2OS [3]; 10 nM) [%]	cell viability (U2OS [3]; 100 nM) [%]	cell viability (U2OS [3]; 1000 nM) [%]	cell viability (U2OS [3]; 10000 nM) [%]	cell viability (Vero E6 [4]; 1 nM) [%]	cell viability (Vero E6 [4]; 10 nM) [%]	cell viability (Vero E6 [4]; 100 nM) [%]	cell viability (Vero E6 [4]; 1000 nM) [%]	cell viability (Vero E6 [4]; 10000 nM) [%]	relative viability EC50 (Caco-2 [5]) [µM]	relative viability EC50 (Calu-3 [6]) [µM]	relative viability EC50 (U2OS [7]) [µM]	relative viability EC50 (Vero E6 [8]) [µM]	drug sensitivity score (Caco-2 [9])	drug sensitivity score (Calu-3 [10])	drug sensitivity score (U2OS [11])	drug sensitivity score (Vero E6 [12])	drug sensitivity score (HepG2)
CC(C)(C)NCC(O)c1cc(Cl)c(N)c(C(F)(F)F)c1 (stereo unspecified) [mabuterol]	87.6	110	99.1	112	85.7	102	97	99.6	92.8	98.2	97.2	93.6	98.8	97.7	93.3	89.1	92	92.4	91.6	104	> 10	> 10	> 10	> 10	0.1	0	0	0	
Cc1ccc(Cl)c(Nc2ccccc2C(=O)O)c1Cl [meclofenamic-acid]	97.6	103	95.8	102	91.2	98.2	101	88.1	109	91.8	99.3	103	97.1	105	96.2	105	93.7	102	101	96.5	> 10	> 10	> 10	> 10	0	0	0	0	
COc1ccccc1OC(=O)C(C)c1ccc(CC(C)C)cc1 (stereo unspecified) [metoxibutropate]	95.5	104	90.2	93.1	96.7	118	105	104	97.7	107	101	103	97.8	99.3	100	99.2	102	96.9	98.7	100	> 10	> 10	> 10	> 10	0	0	0	0	
CC1(C)NC(=O)N(c2ccc([N+](=O)[O-])c(C(F)(F)F)c2)C1=O [nilutamide]	102	107	117	107	90.5	106	100	94.7	104	92.7	96	104	98.2	94.8	103	106	97.1	104	94.8	96.8	> 10	> 10	> 10	> 10	0	0	0	0	
C#C[C@]1(O)CC[C@H]2[C@@H]3CCC4=CC(=O)CC[C@@H]4[C@H]3CC[C@@]21CC [norgestrel]																										0	0	0	0
